Experimental data: patent US20170198359A1, “METHODS AND COMPOSITIONS FOR TREATMENT OR DIAGNOSIS OF CANCERS RELATED TO GABRA3” (The Wistar Institute of Anatomy and Biology, priority 2016, published 2017)
Entries after “also recorded” stand apart in the source; their conditions may differ.

Tests used:
[1] = test system: MDA-MB-436 cells; assay: Boyden chamber migration assay, MDA-MB-436 cells with GABRA3 inhibitors; format: cell-based, human; conditions: various concentrations (10 nM-10 μM), FIG. 12
Description: (§1) MDA-MB-436 cells were treated with GABRA3 inhibitors picrotoxin or flumazenil at various concentrations (10 nM-10 μM). Cells were then subjected to Boyden chamber assays (see, e.g., Ostrander et al, Cancer Res May 1, 2007 67; 4199, which is incorporated herein by reference).

[2] = test system: MDA-MB-436 cells; assay: Boyden chamber invasion assay, MDA-MB-436 cells with GABRA3 inhibitors; format: cell-based, human; conditions: various concentrations (10 nM-10 μM), FIG. 12
Description: as §1

[3] = test system: melanoma; conditions: melanoma treatment, clinical trials; cited from earlier work
[4] = test system: MCF7 cells stably expressing GABRA3; assay: Transwell migration assay, MCF7-GABRA3 cells with AKT inhibitor; format: cell-based, human; conditions: different concentrations of the inhibitor vs control DMSO, FIG. 11A
Description: (§2) In vitro cell migration assays were performed as described previously (21, 22) using Trans-well chambers ([…] pore size; Costar). Cells were allowed to grow to subconfluency (˜75-80%) and were serum-starved for 24 h. After detachment with trypsin, cells were washed with PBS, resuspended in serum-free medium and 250 μl cell suspensions (2×10^5 cells ml−1) was added to the upper chamber. Complete medium was added to the bottom wells of the chambers. The cells that had not migrated were removed from the upper face of the filters using cotton swabs, and the cells that had migrated to the lower face of the filters were fixed with 5% glutaraldehyde solution and stained with 0.5% solution of Toluidine Blue in 2% sodium carbonate. Images of three random ×10 fields were captured from each membrane and the number of migratory cells was counted. […]
(§3) It has previously been shown that A-to-I edited GABRA3 affected the intracellular trafficking of GABRA3 (18), which is critical for the localization of GABRA3 on cell membrane. We determined the expression of GABRA3 on cell surface of breast cancer cells using FACS analysis. […] Since AKT pathway is critical in both breast cancer metastasis and therapy resistance (27-29), we determined the effect of GABRA3 on AKT activation and whether AKT pathway mediates GABRA3 functions in migration and invasion. […]

[5] = test system: MCF7 cells stably expressing GABRA3; assay: Matrigel invasion assay, MCF7-GABRA3 cells with AKT inhibitor; format: cell-based, human; conditions: different concentrations of the inhibitor vs control DMSO, FIG. 11B
Description: as §2, §3

## picrotoxin
[1]
  cell migration: suppress
[2]
  cell invasion: suppress

## Nc1nc2ccc(OC(F)(F)F)cc2s1 [Riluzole]
[3]
  anti-tumor activity: significant anti-tumor activity

## CCOC(=O)c1ncn2c1CN(C)C(=O)c1cc(F)ccc1-2 [flumazenil]
[1]
  cell migration: suppress
[2]
  cell invasion: suppress

## NC1(c2ccc(-c3nc4ccn5c(=O)[nH]nc5c4cc3-c3ccccc3)cc2)CCC1 [MK-2206]
[4]
  cell migration: inhibited cell migration and invasion in a dose-dependent manner; also recorded: suppressed
[5]
  cell invasion: inhibited cell migration and invasion in a dose-dependent manner; also recorded: suppressed
